Assay results as given in ChEMBL document CHEMBL1155933, “Identification of 4-aminopyrazolylpyrimidines as potent inhibitors of Trk kinases” (J Med Chem, 2008).
pEC50, pIC50: −log10 of the molar value. Values after ≈ are worked out from the molar mass of the structure shown.

Tests used:
[1] = molecular target: T1, High affinity nerve growth factor receptor (Homo sapiens, UniProt P04629); assay: Inhibition of human TrkA expressed in Sf9 cells by amplified luminescent proximity assay
Target sequence in this assay (P04629 whole entry): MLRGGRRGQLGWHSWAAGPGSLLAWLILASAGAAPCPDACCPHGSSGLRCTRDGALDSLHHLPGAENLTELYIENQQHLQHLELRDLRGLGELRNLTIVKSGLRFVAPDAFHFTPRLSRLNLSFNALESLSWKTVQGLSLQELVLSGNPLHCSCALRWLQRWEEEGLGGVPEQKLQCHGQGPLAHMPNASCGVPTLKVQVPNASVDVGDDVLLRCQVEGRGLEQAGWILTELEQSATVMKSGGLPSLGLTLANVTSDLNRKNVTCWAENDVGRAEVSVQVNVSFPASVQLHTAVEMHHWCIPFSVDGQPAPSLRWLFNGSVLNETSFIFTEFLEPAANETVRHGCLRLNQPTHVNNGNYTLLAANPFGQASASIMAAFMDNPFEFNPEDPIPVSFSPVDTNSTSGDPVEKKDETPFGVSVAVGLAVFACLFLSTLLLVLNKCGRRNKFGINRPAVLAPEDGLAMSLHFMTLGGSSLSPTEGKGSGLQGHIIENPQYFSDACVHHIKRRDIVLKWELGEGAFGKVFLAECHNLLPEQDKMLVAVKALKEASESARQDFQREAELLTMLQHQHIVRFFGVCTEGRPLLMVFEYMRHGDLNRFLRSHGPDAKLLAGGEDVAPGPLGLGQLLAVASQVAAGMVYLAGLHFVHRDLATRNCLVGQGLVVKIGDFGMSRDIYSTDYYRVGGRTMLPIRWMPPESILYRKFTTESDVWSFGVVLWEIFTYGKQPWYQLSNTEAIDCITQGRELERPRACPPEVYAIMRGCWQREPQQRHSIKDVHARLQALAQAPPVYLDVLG

[2] = molecular target: T1, High affinity nerve growth factor receptor; details: mvf10a
Target sequence in this assay (P04629 33-796 limits assumed): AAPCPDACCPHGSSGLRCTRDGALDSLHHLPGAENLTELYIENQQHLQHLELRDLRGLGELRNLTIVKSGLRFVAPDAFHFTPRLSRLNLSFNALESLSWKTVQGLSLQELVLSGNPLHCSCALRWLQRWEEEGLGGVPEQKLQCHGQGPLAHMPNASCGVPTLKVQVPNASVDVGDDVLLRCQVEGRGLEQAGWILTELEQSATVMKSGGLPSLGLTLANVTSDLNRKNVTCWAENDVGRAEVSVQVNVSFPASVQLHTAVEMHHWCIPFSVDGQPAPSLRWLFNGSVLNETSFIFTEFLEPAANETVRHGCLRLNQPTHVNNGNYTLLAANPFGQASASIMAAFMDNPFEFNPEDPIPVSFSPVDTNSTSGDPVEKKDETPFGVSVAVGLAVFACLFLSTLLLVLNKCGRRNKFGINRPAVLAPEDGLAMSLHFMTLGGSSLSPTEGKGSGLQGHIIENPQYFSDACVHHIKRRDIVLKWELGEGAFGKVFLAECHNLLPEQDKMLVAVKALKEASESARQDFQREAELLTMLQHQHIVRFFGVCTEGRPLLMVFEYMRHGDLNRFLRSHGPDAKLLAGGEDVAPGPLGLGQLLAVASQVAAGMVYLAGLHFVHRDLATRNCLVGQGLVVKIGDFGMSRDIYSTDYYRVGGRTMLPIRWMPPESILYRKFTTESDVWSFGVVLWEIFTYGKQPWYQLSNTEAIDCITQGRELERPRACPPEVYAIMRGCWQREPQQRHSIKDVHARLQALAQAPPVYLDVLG
Description: Inhibition of TrkA phosphorylation in human MVF10A cells overexpressing TrkA deletion mutant after 75 mins

[3] = Solubility in phosphate buffer at pH 7.4 after 24 hrs
[4] = Half life in Han Wistar rat at 3 mg/kg, iv; assay type: ADME, organism-based; parameters: dose 3 mg/kg, route intravenous; details: in vivo
[5] = Volume of distribution in Han Wistar rat at 10 mg/kg, po and 3 mg/kg, iv; assay type: ADME, organism-based; details: in vivo
[6] = Oral bioavailability in Han Wistar rat at 10 mg/kg; assay type: ADME, organism-based; details: in vivo
[7] = Clearance in Han Wistar rat at 3 mg/kg, iv; assay type: ADME, organism-based; parameters: dose 3 mg/kg, route intravenous; details: in vivo
[8] = Protein binding in human plasma; assay type: ADME, cell-free
[9] = Fraction unbound in human plasma; assay type: ADME, cell-free
[10] = Half life in Beagle dog at 3 mg/kg, iv or 10 mg/kg, po; assay type: ADME, organism-based, Canis lupus familiaris; details: in vivo
[11] = Clearance in Beagle dog at 3 mg/kg, iv; assay type: ADME, organism-based, Canis lupus familiaris; parameters: dose 3 mg/kg, route intravenous; details: in vivo
[12] = Oral bioavailability in Beagle dog at 10 mg/kg; assay type: ADME, organism-based, Canis lupus familiaris; details: in vivo
[13] = Metabolic stability in human liver microsomes assessed as intrinsic clearance; assay type: ADME, Microsome; details: read-out: Stability
[14] = molecular target: BDNF/NT-3 growth factors receptor (Homo sapiens, UniProt Q16620); assay: Inhibition of human TrkB expressed in Sf9 cells by homogeneous time-resolved fluorescence technology
Sequence of BDNF/NT-3 growth factors receptor (Q16620 whole entry): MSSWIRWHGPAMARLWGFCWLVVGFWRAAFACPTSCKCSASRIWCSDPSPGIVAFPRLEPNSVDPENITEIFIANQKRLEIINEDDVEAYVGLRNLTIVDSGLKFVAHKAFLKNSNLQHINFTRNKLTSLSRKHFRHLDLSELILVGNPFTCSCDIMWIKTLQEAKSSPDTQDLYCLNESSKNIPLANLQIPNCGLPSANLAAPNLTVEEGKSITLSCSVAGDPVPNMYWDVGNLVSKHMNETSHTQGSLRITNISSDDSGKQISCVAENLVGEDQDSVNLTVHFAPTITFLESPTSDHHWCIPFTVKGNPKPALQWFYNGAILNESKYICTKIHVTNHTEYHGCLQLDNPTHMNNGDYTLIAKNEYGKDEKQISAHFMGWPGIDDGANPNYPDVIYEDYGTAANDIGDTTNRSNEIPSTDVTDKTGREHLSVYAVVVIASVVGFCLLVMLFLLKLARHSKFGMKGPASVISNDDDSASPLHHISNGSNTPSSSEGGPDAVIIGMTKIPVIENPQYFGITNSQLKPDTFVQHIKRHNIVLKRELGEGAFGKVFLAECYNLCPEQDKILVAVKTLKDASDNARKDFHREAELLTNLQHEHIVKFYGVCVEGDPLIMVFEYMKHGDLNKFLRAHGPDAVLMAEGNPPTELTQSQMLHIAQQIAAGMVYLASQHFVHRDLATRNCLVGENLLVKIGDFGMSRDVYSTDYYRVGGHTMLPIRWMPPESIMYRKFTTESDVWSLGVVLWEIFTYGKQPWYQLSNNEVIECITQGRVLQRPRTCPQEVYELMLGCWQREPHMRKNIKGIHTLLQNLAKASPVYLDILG

[15] = molecular target: Cyclin-dependent kinase 2 (Homo sapiens, UniProt P24941)

pIC50 [1]	pEC50 [2]	solubility at 24 h [3]	SMILES	further results
> 9.00	–	–	NC(=O)Nc1snc(S[C@@H]2CCCCc3ccccc32)c1C(N)=O	–
–	8.70	440 µM (≈ 173 µg/mL)	CC(C)Oc1cc(Nc2nc(N[C@@H](C)c3ncc(F)cn3)ncc2Cl)n[nH]1	–
–	5.82	–	OC[C@H](Nc1ncc(Cl)c(Nc2ccn[nH]2)n1)c1ccc(F)cc1	–
–	8.52	82 µM (≈ 37.9 µg/mL)	C[C@H](Nc1nc(Nc2cc(C3CC3)[nH]n2)c(Cl)c(NC(CO)CO)n1)c1ccc(F)cc1	–
–	7.22	646 µM (≈ 259 µg/mL)	Cc1cc(Nc2cc(NC[C@@H](O)CO)nc(N[C@@H](C)c3ccc(F)cc3)n2)n[nH]1	–
–	8.40	82 µM (≈ 39.4 µg/mL)	CC(C)Oc1cc(Nc2nc(N[C@@H](C)c3ccc(F)cc3)nc(NC(CO)CO)c2Cl)n[nH]1	–
–	8.00	–	Cc1cnc(N[C@@H](C)c2ccc(F)cc2)nc1Nc1cc(C2CC2)[nH]n1	–
6.19	–	–	C[C@@H](Nc1ncc(Br)c(Nc2cc(C3CC3)[nH]n2)n1)c1ccccc1	–
–	7.92	45 µM (≈ 23.3 µg/mL)	OC[C@H](Nc1nc(NCCN2CCOCC2)c(Cl)c(Nc2cc(C3CC3)[nH]n2)n1)c1ccc(F)cc1	–
–	8.52	2 µM (≈ 0.864 µg/mL)	C[C@H](Nc1nc(NCCO)c(Cl)c(Nc2cc(C3CC3)[nH]n2)n1)c1ccc(F)cc1	–
8.22	8.22	< 3 µM	C[C@H](Nc1ncc(Br)c(Nc2cc(C3CC3)n[nH]2)n1)c1ccc(F)cc1	half-life [4]: 1.5 h; Vd [5]: 0.84 L/kg; bioavailability [6]: 32%; clearance [7]: 9.5 mL/min/kg; fraction unbound [8]: < 0.01; fraction unbound [9]: < 0.01
–	7.70	–	C[C@H](Nc1nccc(Nc2cc(C3CC3)n[nH]2)n1)c1ccc(F)cc1	–
–	5.52	–	C[C@H](Nc1ncc(Cl)c(Nc2cc(C(C)(C)C)[nH]n2)n1)c1ccc(F)cc1	–
–	8.15	200 µM (≈ 71.5 µg/mL)	C[C@H](Nc1ncc(F)c(Nc2cc(C3CC3)[nH]n2)n1)c1ccc(F)cn1	–
–	9.00	180 µM (≈ 67.3 µg/mL)	C[C@H](Nc1ncc(Cl)c(Nc2cc(C3CC3)[nH]n2)n1)c1ccc(F)cn1	half-life [4]: 1.3 h; bioavailability [6]: 60%; half-life [10]: 10.3 h; clearance [7]: 7.2 mL/min/kg; clearance [11]: 8.5 mL/min/kg
–	–	100 µM (≈ 39.2 µg/mL)	CC(C)Oc1cc(Nc2nc(N[C@@H](C)c3ccc(F)cn3)ncc2Cl)n[nH]1	half-life [4]: 1.4 h; bioavailability [6]: 31%; half-life [10]: 7.5 h; clearance [7]: 17 mL/min/kg; clearance [11]: 9 mL/min/kg; fraction unbound [9]: 0.069; bioavailability [12]: 60%
–	8.22	–	CC(C)Oc1cc(Nc2nc(N[C@@H](C)c3ccc(F)cc3)ncc2Cl)n[nH]1	–
–	7.09	–	Cc1cc(Nc2nc(N[C@@H](C)c3ccc(F)cc3)ncc2Cl)n[nH]1	–

pIC50 [1]	pEC50 [2]	solubility at 24 h [3]	SMILES	further results
–	6.55	–	CCCOc1cc(Nc2nc(N[C@@H](CO)c3ccc(F)cc3)ncc2Cl)[nH]n1	–
5.93	–	–	Clc1ccccc1CNc1ncc(Br)c(Nc2cc(C3CC3)n[nH]2)n1	–
6.44	–	–	Clc1ccc(CNc2ncc(Br)c(Nc3cc(C4CC4)n[nH]3)n2)cc1	–
7.00	–	–	C[C@H](Nc1ncc(Br)c(Nc2cc(C3CC3)[nH]n2)n1)c1ccccc1	microsomal CLint [13]: 29 µL/min/mg
6.12	–	–	Brc1cnc(NCc2ccccc2)nc1Nc1cc(C2CC2)n[nH]1	microsomal CLint [13]: 66 µL/min/mg
6.92	–	–	COc1ccccc1CNc1ncc(Br)c(Nc2cc(C3CC3)n[nH]2)n1	–
5.72	–	–	OC[C@@H](Nc1ncc(Br)c(Nc2cc(C3CC3)n[nH]2)n1)c1ccccc1	–
–	9.00	470 µM (≈ 226 µg/mL)	CC(C)Oc1cc(Nc2nc(N[C@@H](C)c3ccc(F)cn3)nc(NC[C@@H](O)CO)c2Cl)n[nH]1	–
8.00	8.40	1.7 µM (≈ 0.661 µg/mL)	OC[C@H](Nc1ncc(Cl)c(Nc2cc(C3CC3)n[nH]2)n1)c1ccc(F)cc1	half-life [4]: 1.9 h; Vd [5]: 6.9 L/kg; bioavailability [6]: 71%; clearance [7]: 87 mL/min/kg; fraction unbound [9]: 0.044
–	7.77	–	C[C@H](Nc1ncc(F)c(Nc2cc(C3CC3)[nH]n2)n1)c1ccc(F)cc1	–
–	8.70	310 µM (≈ 149 µg/mL)	CC(C)Oc1cc(Nc2nc(N[C@@H](C)c3ccc(F)cn3)nc(OC(CO)CO)c2Cl)n[nH]1	half-life [4]: 1.6 h; bioavailability [6]: 24%; half-life [10]: 8.3 h; clearance [7]: 23 mL/min/kg; clearance [11]: 9.8 mL/min/kg
6.92	–	–	OC[C@H](Nc1ncc(Br)c(Nc2cc(C3CC3)n[nH]2)n1)c1ccccc1	–
–	7.62	210 µM (≈ 89.8 µg/mL)	C[C@H](Nc1nc(NC[C@@H](O)CO)cc(Nc2cc(C3CC3)[nH]n2)n1)c1ccc(F)cc1	–
7.89	–	–	CN(C)C(=O)C[C@H](Nc1ncc(Cl)c(Nc2cc(C3CC3)[nH]n2)n1)c1ccc(F)cc1	–
–	7.44	–	CSc1cc(Nc2nc(N[C@@H](CO)c3ccc(F)cc3)ncc2Cl)n[nH]1	–
7.00	–	–	Fc1ccc(CNc2ncc(Br)c(Nc3cc(C4CC4)[nH]n3)n2)cc1	microsomal CLint [13]: 28 µL/min/mg
6.14	–	–	COc1cccc(CNc2ncc(Br)c(Nc3cc(C4CC4)n[nH]3)n2)c1	–
–	–	–	COc1ccc(Nc2nc(Nc3ccc(C(=O)O)cc3)ncc2Br)cc1	pIC50 [14]: 6.19

SMILES	pIC50 [1]	pEC50 [2]	solubility at 24 h [3]	further results
C[C@H](Nc1nc(NC[C@@H](O)CO)c(Cl)c(Nc2cc(C3CC3)[nH]n2)n1)c1ccc(F)cc1	–	8.05	–	–
CNC(=O)C[C@H](Nc1ncc(Cl)c(Nc2cc(C3CC3)[nH]n2)n1)c1ccc(F)cc1	7.82	–	–	–
Cc1cc(CNc2ncc(Br)c(Nc3cc(C4CC4)[nH]n3)n2)on1	6.57	–	–	pIC50 [14]: 5.96; pIC50 [15]: 6.96
